Measurements as given in patent US7605280B2, “Anthraquinone and its derivatives” (Biostatus Limited, priority 1998, dated 2009).
Where “and” joins values, the source holds several entries; their conditions need not be identical. Equal values may be shown once.

How the values were obtained:
SUD4 cells = assay: FACScan (Cytometer C) flow cytometric analysis of DRAQ5-labelled cells; assay type: cell-based, human
Experimental: (§1) HL60 (human promyelocytic-leukaemia cell line) and SUD4 (human B cell lymphoma cell line) were grown as suspension cultures-in-RMPI medium with 10% foetal calf serum, 1 mM glutamine and antibiotics and incubated at 37° C. in an atmosphere of 5% CO2 in air. For flow cytometry experiments, asynchronously growing suspension cultures were diluted to 2.5-4>10^5 cells/ml at 2 h prior to drug treatment. Cell cycle-perturbed populations were obtained by treating SUD4 cells with the drug etoposide (VP-16-213) at 0.25 μM for 18h. Cells were treated with DRAQ5 and FDA as described above. Cell concentrations were determined using a Coulter counter and cell cycle distribution determined using an algorithm for the normal distibution of fluorescence intensity profiles for fluorochrome stained G1 and G2 cells.
Suspension cultures were analysed by flow cytometry without washing. Human blood was obtained using routine venepuncture of a healthy donor and samples manipulated using standard haematological procedures for the isolation of mononuclear blood cells and surface antigen recognition using antibody panels (see Table 1).
Cells were analysed using one of four flow cytometers according to the excitation requirements. • Cytometer A: Single beam high power 647 nm krypton laser excitation: The system was a custom-built cytometer and incorporated an Innova 3000K krypton laser (Coherent Corp., Palo Alto, Calif., USA) tuned to the 647 nm line. Forward light scatter, 90° light scatter and fluorescence emissions were collected for 1×10^4 cells using the 90° light scatter parameter as the master signal. The optical system permitted the analysis of various fluorescence emission wavelengths including: >715 nm (termed low infra-red) and, as reported here >780 nm fluorescence (infra-red ). Forward and 90° light scatter were analysed for the identification of cell debris. Laser power was set at 200 mW and linear amplifiers were used for the fluorescence signals. The analysis optics included a 675 nm cold dichroic mirror, ambient laboratory temperature was approximately 12° C. and the sheath reservoir was maintained at 10° C. Filters were supplied by Melles Griot. Median, mean and mode parameters were calculated for the distribution of fluorescence intensity-values throughout a given cell population. In all experiments, median and mean values produced very similar results. Median values alone are reported since this parameter is less affected by the presence of highly fluorescent cells beyond the upper limit for quantification. • Cytometer B: Dual beam low power 633 nm/high power 488 nm laser excitation: The system was a FACS 440 cell sorter (Becton Dickinson Inc., Cowley, UK) incorporating a Spectra Physics argon ion laser (max 500 mW output), tuned to the 488 nm line (100 mW output), and a secondary Spectra Physics 156 helium-neon laser emitting at 633 nm (emitting <5 mW), with a temporal beam separation of about 30 μsec. Forward light scatter, 90° light scatter and fluorescence emissions were collected for 1×10^4 cells using the forward light scatter parameter as the master signal from the primary 488 nm beam, while side scatter was collected through a 488/10 nm band-pass filter. The analysis optics included: i) a cold dichroic mirror (transmitting >675 nm), ii) fluorescence from fluorescein excited by the 488 nm beam detected at a PMT guarded by a 535/15 nm band-pass filter with no signal delay, and iii) a red-sensitive PMT with an appropriate delay, additionally guarded by a 620 nm long-pass filter, to detect the transmitted beam of DRAQ5-associated fluorescence at wavelengths beyond 675 nm (high-red and extending into the infra red region of the spectrum) Forward and 90° light scatter were analysed to exclude any cell debris. All parameters were acquired at 256 channel resolution with Consort 30 software (Becton Dickinson) and subsequently analysed with WinMDI software (J. Trotter, La Jolla, Calif.). […]

viable HL60 cells = assay: Flow cytometric analysis of DRAQ5 accumulation (Cytometers A and B); assay type: cell-based, human; details: Cytometer B, low power 633 nm, 1 h exposure
Experimental: as §1
Cells were analysed using one of four flow cytometers according to the excitation requirements. • Cytometer A: Single beam high power 647 nm krypton laser excitation: The system was a custom-built cytometer and incorporated an Innova 3000K krypton laser (Coherent Corp., Palo Alto, Calif., USA) tuned to the 647 nm line. Forward light scatter, 90° light scatter and fluorescence emissions were collected for 1×10^4 cells using the 90° light scatter parameter as the master signal. […] Forward and 90° light scatter were analysed for the identification of cell debris. […]

Solubility = assay type: physicochemical

Compound: CN(C)CCNc1ccc(O)c2c1C(=O)c1c(O)ccc(NCCN(C)C)c1C2=O [DRAQ5]
- DRAQ5 concentration at which staining saturates (SUD4 cells; 5 min at room temperature, SUD4, lymphocytes, monocytes (FIG. 8)): ≥ 10 µM
- increase of mean fluorescence for G2 arrested populations (SUD4 cells; Preparation 1, VP-16 arrested versus asynchronous cells): 1.7 fold
- Mean fluorescence intensity (±sd) of gated population (SUD4 cells; Preparation 1, 20 μM DRAQ5, 120 min, FL3): 645.1 ± 177.7
- Mean fluorescence intensity (±sd) of gated population (SUD4 cells; Preparation 1, cells pretreated 0.25 μM VP-16 × 18 h, 20 μM DRAQ5, 5 min): 891.8 ± 126.4
- Mean fluorescence intensity (±sd) of gated population (SUD4 cells; Preparation 1 viable cultured cells, 20 μM DRAQ5, 5 min, FL3): 499.4 ± 143.3 and 532.4 ± 148.3
- Mean fluorescence intensity (±sd) of gated population (SUD4 cells; Preparation 2, cells pretreated 0.25 μM VP-16, 20 μM DRAQ5, 5 min): 902.7 ± 117.1
- Mean fluorescence intensity (±sd) of gated population (SUD4 cells; Preparation 2 surface antigen analysis, 20 μM DRAQ5, 5 min): 564.3 ± 147.2
- lower end of linear dose-response of 633 nm derived DRAQ5 signal (viable HL60 cells): approximately 2.5 μM
- solubility (Solubility): soluble in biologically compatible solvents including water
